The text below walks through data of patent US6184252A, “2-amino-1,3-alkanediol compositions for inducing/stimulating hair growth and/or retarding hair loss” (priority 1996, dated 2001).

Like-named read-outs stand apart in the source and are kept apart here.

Type in all cases: cell-based
The subject of data set [1] is HaCat cells (cultured keratinocytes). Put plainly: Cell viability (mitochondrial respiration, XTT kit). The conditions noted are these: for activation at 0.05 µM: Homo sapiens, HaCaT, read-out: increase in the number of cells with respect to the control (cell viability). As for the experimental part: Measurement of the Effect of 2-amino-1,3-octadecanediol and Derivatives Thereof on Cell Viability
HaCat cells were cultured as in Example 1.
(§1) These were then inoculated at a density of 20,000 cells per well in the 24 wells of plates of the multiwell type (Costar, France).
(§2) 24 hours after inoculation, the cells were contacted with the various test compounds in a KBM medium (marketed by Clonetics) containing insulin at 5 μg/ml and hydrocortisone at 0.5 μg/ml.
(§3) Cell viability was evaluated 48 hours later by measuring the mitochondrial respiration. This was carried out using an XTT kit, marketed by Boehringer, according to the supplier's instructions.
The compounds A, B and C of the above Example 1 were tested at a concentration of 50 nM, as well as a derivative based on sphingenine: N-palmitoylsphingenine marketeed by Sigma (C16H).
For orientation: Formazan colour is commonly taken as a measure of viable cells.

The test system of data set [2] is HaCat cells (keratinocytes). The data set is described as follows: Effect on the cell cycle (BrdU incorporation, entry into S phase). The settings on record: 50 nM; for activation at 0.05 µM: Homo sapiens, HaCaT, read-out: increase in the number of cells which have entered into the S phase with respect to the control. On the procedure: Measurement of the Effect of 2-amino-1,3-octadecanediol and Derivatives Thereof on the Cell Cycle
HaCat cells were cultured as above.
as §1
24 hours after inoculation, the cells were contacted with the various test compounds in a KBM medium (marketed by Clonetics) containing insulin at 5 μg/ml and hydrocortisone at 0.5 μg/ml and 5-bromo-2'-deoxyuridine (BrdU) at 1 μM.
[…] This was carried out using a BrdU fast kit, marketed by Boehringer, according to the supplier's instructions.
The compounds A, B and C of the above example were tested at a concentration of 50 nM.
The results, expressed as percentage, represent the increase in the number of cells which have entered into the S phase with respect to the control, namely, with respect to a culture produced under the same conditions in the absence of alkanediol compounds.

Another data set relates to hair follicle. The data set is described as follows: Survival of the hair follicle in vitro. The conditions noted are these: Homo sapiens, read-out: percentage of surviving follicles. On the procedure:
Viable in vitro hair follicles were prepared according to the technique described in FR-95/08,465, filed Jul. 12, 1995 and assigned to the assignee hereof. From a scalp biopsy, a rather fine strip of scalp was isolated using a scalpel. The adipose tissue surrounding the follicles was removed with microforceps while avoiding damage to the hair bulb. The follicle was cut and removed with a scalpel under a microscope in order to separate it from its epidermal and dermal surroundings. The fragment obtained was maintained in culture in Williams E medium, at 37° C., in a humid atmosphere in the presence of CO2. The survival of the follicles was evaluated each day by counting the living follicles, according to their morphological appearance. The results are reported as percentage of surviving follicles per day. The experiment was carried out employing the following compounds at a concentration of 50 nM: in comparison with the culture medium without alkanediol (A).

Data set [3] relates to HaCat cells (cultured keratinocytes). The data set is described as follows: Proliferative influence on cultured keratinocytes (cell counting with Coulter Counter). The conditions noted are these: Homo sapiens, 120 h, 5 days, read-out: increase in the number of cells with respect to the control; for activation at 0.0005 µM: 0.5 nM; for activation at 0.005 µM: 5 nM; for activation at 0.05 µM: 50 nM; for activation at 0.5 µM: 500 nM. On the procedure:
Measurement of the Proliferative Influence of 2-amino-1,3-octadecanediol and Derivatives Thereof on Cultured Keratinocytes
HaCat cells (Boukamp and coworkers, J. Cell Biol., vol. 106, March 1988, 761-771) were cultured in DMEM medium (marketed by Gibco) containing amino acids (mixture of nonessential amino acids) at a concentration of 0.1 mM, penicillin and streptomycin at respective concentrations of 50 International Units per […] and of 50 μg/ml, glutamine at a concentration of 2 mM, sodium pyruvate at a concentration of 1 mM and 10% fetal calf serum. These cells were inoculated at a density of 10,000 cells per well in the 24 wells of plates of the multiwell type (Costar, France). 24 hours after inoculation, the cells were contacted with the various test compounds in a KBM medium (marketed by Clonetics) containing 0.15 mM of calcium ion, insulin at 5 μg/ml, hydrocortisone at 0.5 μg/ml and lipid-free bovine serum albumin at 1 μg/ml.
Cellular counting was carried out 5 days after the addition of the various ceramides using a cell counter of the Coulter Counter type.
The various compounds were tested at 0.5 nM, 5 nM, 50 nM and 500 nM.
The results, expressed as percentage, represent the increase in the number of cells with respect to the control, namely, with respect to a culture produced under the same conditions in the absence of sphinganine.

Data set [4] has as its system HaCat cells. Put plainly: Cell viability in the presence of doxorubicin (XTT kit). The settings on record: for increase in the number of cells with respect to the control (A): read at 48 hours. As for the experimental part: Effect of 2-amino-1,3-octadecanediol and Derivatives Thereof on Cell Viability in the Presence of Doxorubicin
HaCat cells were cultured as in Example 2.
as §2
The cells were cultured in the presence of the 2-amino-1,3-octadecanediol to be tested until evaluation of cell viability.
Doxorubicin at a concentration of 1 μg/ml was added to the culture medium for 2 hours at the beginning of the experiment.
as §3
(§4) The experiment was carried out with the following compounds at a concentration of 50 nM:
in comparison with the culture medium without alkanediol and without doxorubicin (A) and with a medium containing only doxorubicin (B).
The results, expressed as percentage, represent the increase in the number of cells with respect to the control (A), namely, with respect to a culture produced under the same conditions in the absence of alkanediol compounds and of doxorubicin.

Data set [5] has as its system HaCat cells. On the procedure:
Effect of 2-amino-1,3-octadecanediol and Derivatives Thereof on Cell Viability in the Presence of a Compound Based on Sphingenine, N-acetylsphingenine
The cells were cultured as in Example 5. N-Acetylsphingenine was at a concentration of 10 μM.
as §4
in comparison with the culture medium without alkanediol and without N-acetylsphingenine (A) and with a medium containing only N-acetylsphingenine (B).
The results, expressed as percentage, represent the number of cells with respect to the control (A), namely, with respect to a culture produced under the same conditions in the absence of alkanediol compounds and of N-acetylsphingenine.

Where [6] appears, read: alkanediol 50 nM in presence of doxorubicin 1 μg/ml for 2 hours.

With `CCCCCCCCCCCCCCCC(O)C(CO)NC(=O)C(O)CCCCCCCCCCCCCC` (stereo not drawn) [C, 2-N-(2-hydroxyhexadecanoyl)amino-1,3-octadecanediol], in data set [1] (50 nM, 48 hours), the “viability of the cultured keratinocytes (in words)” value is given as “increased the viability of the cultured keratinocytes”. Also, the activation at 0.05 µM in data set [1] (50 nM, 48 hours) came to 20%; in data set [2] (72 hours), 17%; in data set [2] (96 hours), 43%; in data set [3], 42%. Besides, the “number of keratinocytes which have entered into the S phase (in words)” value (shortened to “number … (in words)”) in data set [2] is given as “increase the number of keratinocytes which have entered into the S phase”. The viability at 0.05 µM with hair follicle (0 h, 50 nM, day 0) was determined as 100%; in the data set with hair follicle (24 h, 50 nM, day 1) it was 100%; in the data set on hair follicle (120 h, 50 nM, day 5), 100%; in the data set on hair follicle (240 h, 50 nM, day 10), 50%; with hair follicle (360 h, 50 nM, day 15) it was 42%; in the data set on hair follicle (480 h, 50 nM, day 20) it was 25%. The viability at 0.05 µM in the data set on hair follicle (600 h, 50 nM, day 25) was 0%. Moreover, the activation at 0.0005 µM in data set [3] was found to be 26%. The activation at 0.005 µM in data set [3] was 36%. In data set [3], the activation at 0.5 µM was found to be 22%. The “increase in the number of cells with respect to the control (A)” value (shortened to “increase in the number of cells … (A)”) with HaCat cells [4] (setting [6]) is “+23%”.

With `CCCCCCCC/C=C\CCCCCCCC(=O)NC(CO)C(O)CCCCCCCCCCCCCCC` (stereo not drawn) [B, 2-oleoylamino-1,3-octadecanediol], the “viability of the cultured keratinocytes (in words)” value in data set [1] (50 nM, 48 hours) was “increased the viability of the cultured keratinocytes”. The activation at 0.05 µM was 23% in data set [1] (48 h), 43% in data set [2] (72 hours), 51% in data set [2] (96 hours) and 23% in data set [3]. Also, in data set [2], the “number … (in words)” value was “increase the number of keratinocytes which have entered into the S phase”. For the same compound, the viability at 0.05 µM with hair follicle (0 h) was determined as 100%; with hair follicle (24 h) it was 100%; in the data set on hair follicle (120 h), 100%; in the data set with hair follicle (240 h), 78%; in the data set with hair follicle (360 h) it was 33%; in the data set with hair follicle (480 h), 0%. Further, the viability at 0.05 µM with hair follicle (600 h) stood at 0%. Besides, the activation at 0.0005 µM in data set [3] was 17%. Besides, the activation at 0.005 µM in data set [3] stood at 24%. The activation at 0.5 µM in data set [3] amounted to 14%. In the data set with HaCat cells [4] (setting [6]), the “increase in the number of cells … (A)” value is given as “+28%”.

Consider `CCCCCCCCCCCCCCCCCCCCCCCC(=O)NC(CO)C(O)CCCCCCCCCCCCCCC` (stereo not drawn) [D, 2-tetracosanoylamino-1,3-octadecanediol], for which, in data set [3], the activation at 0.0005 µM was determined as 22%, the activation at 0.005 µM came out at 27%, the activation at 0.05 µM is 33% and the activation at 0.5 µM came out at 42%.

With `CCCCCCCCCCCCC/C=C/[C@@H](O)[C@H](CO)NC(=O)CCCCCCCCCCCCCCC` [Compound C16H, N-palmitoylsphingenine, reference compound], in data set [1] (50 nM, 48 hours), the “increase in the number of cells with respect to the control (cell viability)” value is -25% and the “viability of the cultured keratinocytes (in words)” value was “elicited a cytotoxic effect on the cultured cells”.

`CCCCCCCCCCCCCCCC(O)C(CO)NC(=O)CCCCCCC` (stereo not drawn) [F, 2-octanoylamino-1,3-octadecanediol]: in data set [3], the activation at 0.0005 µM was found to be 15%, the activation at 0.005 µM worked out at 18%, the activation at 0.05 µM came to 31% and the activation at 0.5 µM amounted to 27%.

As for `COc1cccc2c1C(=O)c1c(O)c3c(c(O)c1C2=O)C[C@@](O)(C(=O)CO)C[C@@H]3O[C@H]1C[C@H](N)[C@H](O)[C@H](C)O1` [Doxorubicin, reference compound], in the data set on HaCat cells [4] (doxorubicin 1 μg/ml for 2 hours, alkanediol 50 nM), the “cell viability in the presence of doxorubicin (in words)” value is “caused a decrease in cell viability”. Besides, the “increase in the number of cells … (A)” value in the data set with HaCat cells [4] (only doxorubicin, 1 μg/ml for 2 hours) was -20%.

For `CCCCCCCCCCCCCCCC(O)C(CO)NC(C)=O` (stereo not drawn) [E, 2-acetylamino-1,3-octadecanediol], in data set [3], the activation at 0.0005 µM was determined as 17%, the activation at 0.005 µM stood at 34%, the activation at 0.05 µM was determined as 29% and the activation at 0.5 µM was 35%.

Turning to `CCCCCCCCCCCCC/C=C/[C@@H](O)[C@H](CO)NC(C)=O` [N-Acetylsphingenine], the “cell viability in the presence of N-acetylsphingenine (in words)” value in the data set with HaCat cells [5] (N-acetylsphingenine 10 μM, alkanediol 50 nM) was “caused a decrease in cell viability”. For the same compound, the “number of cells with respect to the control (A)” value in the data set on HaCat cells [5] (human, hacat cells, 48 h, 10 µM) is 57%.

In the case of `CCCCCCCCCCCCCCCC(O)C(N)CO` (stereo not drawn) [A, 2-amino-1,3-octadecanediol], the “viability of the cultured keratinocytes (in words)” value in data set [1] (50 nM, 48 hours) is reported as “increased the viability of the cultured keratinocytes”. The activation at 0.05 µM is 17% in data set [1] (50 nM, 48 hours); 36% in data set [2] (72 hours); 41% in data set [2] (96 hours); 17% in data set [3]. Besides, the “number … (in words)” value in data set [2] is reported as “increase the number of keratinocytes which have entered into the S phase”. For the same compound, the viability at 0.05 µM was found to be 100% in the data set on hair follicle (0 h, 50 nM, day 0); 100% in the data set on hair follicle (24 h, 50 nM, day 1); 90% with hair follicle (120 h, 50 nM, day 5); 20% in the data set on hair follicle (240 h, 50 nM, day 10); 0% with hair follicle (360 h, 50 nM, day 15); 0% with hair follicle (480 h, 50 nM, day 20). Besides, the viability at 0.05 µM in the data set with hair follicle (600 h, 50 nM, day 25) turned out to be 0%. In addition, the activation at 0.0005 µM in data set [3] worked out at 7%. Also, in data set [3], the activation at 0.005 µM is 15%. The activation at 0.5 µM in data set [3] was 30%. Further, the “increase in the number of cells … (A)” value in the data set on HaCat cells [4] (setting [6]) is on record as “+25%”.
